Data from patent US8557738B2, “Nitrogen-containing heterocyclic derivative and fungicide for agricultural and horticultural use” (Nippon Soda Co., Ltd., priority 2008, dated 2013).
Read-outs that look alike come from different tables or passages of the source.

How the values were obtained:
[1] = system: apple scab pathogen (Venturia inaequalis); experiment: Apple scab control test; assay type: in vivo; settings: 336 h, read-out: control value
[2] = system: cucumber gray mold pathogen (Botrytis cinerea); experiment: Cucumber gray mold control test; assay type: in vivo; settings: 96 h, read-out: control value
[3] = emulsion sprayed at 100 ppm active ingredient onto apple seedlings (Ralls Janet), lesions on leaves after 2 weeks vs untreated
[4] = emulsion sprayed at 100 ppm active ingredient onto cucumber seedlings (Sagami Hanjiro), lesions on leaves after 4 days vs untreated

Row | melting point [°C] | Structure (SMILES) | pest or weed control at 100 ppm [1, 3] [%] | pest or weed control at 100 ppm [2, 4] [%] | pest or weed control at 100 ppm [1] [%] | pest or weed control at 100 ppm [2] [%]
1 | 109 to 112 | CC1(C)COc2ccccc2C(c2cnc3ccccc3c2)=N1 [B1-3, 3,3-Dimethyl-5-(3-quinolinyl)-2,3-dihydro-benzo[f][1,4]oxazepine] | ≥ 75 | ≥ 75 | – | –
2 | 151 to 153 | Cc1cccc2c1OC(C)(C)CN=C2c1cnc2c(F)cccc2c1 [B1-79, 5-(8-Fluoro-quinolin-3-yl)-2,2,9-trimethyl-2,3-dihydro-benzo[f][1,4]oxazepine] | ≥ 75 | ≥ 75 | – | –
3 | – | CC1(C)CN=C(c2cnc3ccccc3c2)c2cccc(Oc3ccccc3)c2O1 [B1-82, 2,2-Dimethyl-9-phenoxy-5-quinolin-3-yl-2,3-dihydro-benzo[f][1,4]oxazepine] | ≥ 75 | ≥ 75 | – | –
4 | – | CC1(C)CN=C(c2cnc3ccccc3c2)c2ccccc2S1 [B2-6, 2,2-Dimethyl-5-(3-quinolinyl)-2,3-dihydro-benzo[f][1,4]thiazepine] | ≥ 75 | ≥ 75 | – | –
5 | – | CC1(C)C[N+]([O-])=C(c2cnc3c(F)cccc3c2)c2ccccc2O1 [B5-34, 5-(8-Fluoro-quinolin-3-yl)-2,2-dimethyl-2,3-dihydro-benzo[f][1,4]oxazepine 4-oxide] | ≥ 75 | ≥ 75 | – | –
6 | – | CC1(C)CN2OC2(c2cnc3c(F)cccc3c2)c2ccccc2O1 (centres unmarked) [B6-34, 8b-(8-Fluoro-quinolin-3-yl)-3,3-dimethyl-2,3-dihydro-8bH-1,4-dioxa-1a-aza-benzo[a]cyclopropa[c]cycloheptene] | – | – | ≥ 75 | ≥ 75
